Target: T1, MD-2 (TLR4/MD-2 complex) (Homo sapiens, UniProt Q9Y6Y9)
T1 construct: gene LY96; MD2 Glu17—Asn160 + 10-His Tag, co-expressed with TLR4 ectodomain Glu24—Lys631 + 10-His Tag; with TLR4 (O00206), ectodomain Glu24—Lys631
Assay: isothermal titration calorimetry of PA into recombinant human TLR4/MD-2 ([…]°C)
Format: binding

T1 sequence (Q9Y6Y9 17-160): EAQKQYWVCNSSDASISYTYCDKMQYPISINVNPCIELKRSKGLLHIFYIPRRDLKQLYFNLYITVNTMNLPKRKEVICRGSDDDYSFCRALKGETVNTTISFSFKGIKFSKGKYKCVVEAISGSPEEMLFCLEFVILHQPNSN
T1 sequence (O00206 24-631 partner): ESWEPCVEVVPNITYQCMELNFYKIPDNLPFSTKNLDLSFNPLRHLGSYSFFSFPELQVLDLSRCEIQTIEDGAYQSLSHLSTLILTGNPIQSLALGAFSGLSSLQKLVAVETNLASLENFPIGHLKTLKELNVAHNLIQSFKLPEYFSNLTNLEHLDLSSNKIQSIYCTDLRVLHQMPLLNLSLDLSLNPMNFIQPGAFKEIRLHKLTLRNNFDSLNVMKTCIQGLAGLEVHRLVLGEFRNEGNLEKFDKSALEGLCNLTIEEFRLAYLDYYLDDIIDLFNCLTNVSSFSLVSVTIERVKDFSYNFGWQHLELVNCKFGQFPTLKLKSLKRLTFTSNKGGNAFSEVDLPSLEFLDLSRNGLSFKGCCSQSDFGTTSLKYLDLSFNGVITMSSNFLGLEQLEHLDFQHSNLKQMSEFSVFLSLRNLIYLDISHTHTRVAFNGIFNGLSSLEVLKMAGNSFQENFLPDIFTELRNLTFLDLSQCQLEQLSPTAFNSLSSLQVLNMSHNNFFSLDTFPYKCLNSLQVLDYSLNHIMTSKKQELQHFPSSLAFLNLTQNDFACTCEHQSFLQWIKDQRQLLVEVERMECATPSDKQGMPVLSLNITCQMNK

CCCCCCCCCCCCCCCC(=O)O [PA, palmitic acid]
Kd: 2300 nM

From article PMC5413048, “Palmitic acid is a toll-like receptor 4 ligand that induces human dendritic cell secretion of IL-1β” (PLoS ONE, 2017)
